Where two headings read alike, the source gives them in different places.
Tests used:
[1] = Pharmacokinetics of gemcitabine in nude mice bearing H1299 xenografts; assay type: in vivo; details: for AUC / CL / Cmax / Vss: nude mice bearing H1299 xenografts, gemcitabine 160 mg/kg iv
Procedure: Female nude mice bearing human lung cancer H1299 xenograft were used (3 mice for each time point). […] Bone marrow cells were harvested by using the same method described above. […] In brief, plasma samples (50 μL) were mixed with 5 mL of scintillation solvent (Beckman) to determine total radioactivity. […] Data and Statistical Analysis.

[2] = test system: human cancer xenografts; assay: Six murine-human cancer xenograft models overall: efficacy and toxicity
Procedure: (§4) Human cancer xenograft models were established using the methods reported previously (26-29). When confluence reached 80%, cultured LS174T, MCF-7, MDA-MB-468, U87-MG, A549 and H1299 cells were harvested from the monolayer cultures, washed with the above indicated serum-free medium and resuspended in the same medium with Matrigel® basement membrane matrix at a 3:1 ratio, and then injected subcutaneously (s.c.) (5×10^6 cells, total volume 0.2 mL) into the left inguinal area of the nude mice. The animals were monitored for activity, physical condition, determination of body weight, and measurement of tumor growth. Tumor growth was determined by caliper measurement in two perpendicular diameters of the implant every other day. Tumor weight (in g) was calculated by the formula, 1/2a×b^2 where “a” is the long diameter and “b” is the short diameter (in cm).
(§5) Nude mice bearing human cancer xenografts were randomly divided into various treatment and control groups (5 mice/group). In treatment groups, animals were pre-treated with DEX subcutaneously (s.c., 0.1 mg/day for 5 days, Day −4-0) or saline (as controls). Carboplatin was administered intraperitoneally (i.p.) at a single dose of 120 mg/kg (360 mg/m^2) on day 0.
(§6) The antitumor activity (tumor mass) and peripheral blood counts were expressed as mean and standard deviations and the significance of differences were analyzed by ANOVA.
(§7) When mean tumor mass reached 44-68 mg, animals were treated with s.c. DEX at a dose of 0.1 mg/day for 5 days, followed by chemotherapy.

[3] = Pharmacokinetics and tissue distribution of gemcitabine in CD-1 mice; assay type: in vivo; details: gemcitabine 160 mg/kg iv
Procedure: At various times (5, 15, and 30 min, 1, 2, 4, 8, and 24 hr after drug dosing), plasma, bone marrow, and tissues including liver, kidneys, heart, lungs, spleen, brain and tumor were collected and treated as described above.
In brief, plasma samples (50 μL) were mixed with […] of scintillation solvent (Beckman) to determine total radioactivity. Tissue homogenates (50-200 μL) were mixed with 200 μL solubilizer (TS-2) overnight, neutralized with 400 μL of 0.3% acetic acid, and then mixed with scintillation solvent (5 mL) to quantitate the total radioactivity.
(§1) The significance of the differences among treated groups and controls were analyzed by ANOVA.

[4] = test system: NSCLC patients; assay: Clinical trial of Dex pretreatment with carboplatin and gemcitabine in stage 4 NSCLC patients; assay type: in vivo, human; details: for AGC nadir ratio (course 2 ÷ course 1), M±SE: 4 days prior to and day of chemotherapy
Procedure: Patients were randomized at a 1:2:2 ratio to receive no Dex (Cohort 1), or Dex 8 mg bid (Cohort 2) or 16 mg bid (Cohort 3), 4 days prior to and the day of each chemotherapy treatment. Dex was given only in courses 2, 3, and 4 so that toxicities between course 1 vs. course 2 comparisons could be made.

[5] = test system: human breast cancer MCF-7 xenografts; assay: In vivo chemotherapy, breast cancer MCF-7 xenograft model in nude mice; details: MCF-7 model
From the text: (§2) Cell Culture. […] All media contained 1% penicillin-streptomycin.
(§3) Data and Statistical Analysis.

[6] = test system: human glioma U87-MG xenografts; details: U87MG model
Procedure: Cell Culture. The cell lines of human cancers (colon LS174T, breast MCF-7 and MDA-MB-468, and lung A549) and glioma (U87-MG) were obtained from American Type Culture Collection (Rockville, Md.) and cultured according to their instruction. LS174T cells were cultured in modified Earle's medium with 0.1 mM nonessential amino acids and Earle's balanced salt solution containing 10% FBS. MCF-7 cells were grown in modified Earle's medium containing 10% FBS, 1 mM non-essential amino acids and Earle's balanced salt solution, 1 mM sodium pyruvate and 10 mg/L bovine insulin. MDA-MB-468 cells were grown in Dulbecco's modified Eagle's/F-12 Ham's medium (1:1 mixture) containing 10% FBS. […]
Animal Tumor Models. […] The animals were monitored for activity, physical condition, determination of body weight, and measurement of tumor growth. Tumor growth was determined by caliper measurement in two perpendicular diameters of the implant every other day. Tumor weight (in g) was calculated by the formula, 1/2a×b^2 where “a” is the long diameter and “b” is the short diameter (in cm). […]
Data and Statistical Analysis. The antitumor activity (tumor mass) and peripheral blood counts were expressed as mean and standard deviations and the significance of differences were analyzed by ANOVA. […]

[7] = test system: human cancer xenografts; details: in vivo
Procedure: as §4, §5, §6, §7

[8] = test system: human lung cancer A549 xenografts; details: A549 model
From the text: as §2, §3

[9] = test system: human lung cancer H1299 xenografts; assay: In vivo chemotherapy, lung cancer H1299 xenograft model in nude mice
From the text: as §2, §3

[10] = test system: CD-1 mice; assay type: in vivo; details: for survival rate: carboplatin 600 mg/m^2 (200 mg/kg) i.p., 14-day
Procedure: Male CD-1 mice, randomly divided into multiple treatment and control groups (10 mice/group), were given DEX by subcutaneous (s.c.) injection at doses of 0.01, 0.05, 0.1, 0.3 mg/mouse/day or saline (as controls) for 5 days prior to (day −4 to 0) or after (day 0 to 4) a single intraperitoneal (i.p.) injection of carboplatin (600 mg/m^2 or 200 mg/kg) on day 0. Animals were monitored daily for activity, physical condition, body weight and 14-day survival rates.
as §1

[11] = test system: human colon cancer LS174T xenografts; assay: In vivo chemotherapy, colon cancer LS174T xenograft model in nude mice; details: DEX s.c. 0.1 mg/day 5 days, carboplatin 120 mg/kg i.p. day 0
From the text: as §2, §3

[12] = test system: CD-1 mice
Procedure: sing a protocol similar to the above survival study, the effects of DEX on chemotherapy-induced bone marrow toxicity were studied in male CD-1 mice. DEX (s.c., 0.1 mg/mouse/day for 5 days) was given prior to (day −4-0) or after (day 0 to 4) a single i.p. dose of carboplatin (600 mg/m^2 or 200 mg/kg). On days −4, 0, 3, 7, 14, peripheral blood samples (60 μL) were obtained from postorbital venous plexus using a microcapillary tube coated with 5% ethylenediaminetetraacetic acid and cell counts were obtained using a Coulter counter. Wright's stained peripheral blood smears were examined by light microscopy and the percentage of lymphocytes, granulocytes and monocytes were recorded.
as §1
To examine possible mechanisms responsible for reduced mortality in mice pre-treated with DEX, peripheral blood counts before and after chemotherapy were determined. […] The same experimental design was used to examine the dose-schedule effects of dexamethasone prevention of neutropenia.

Nc1ccn([C@@H]2O[C@H](CO)[C@@H](O)C2(F)F)c(=O)n1 [gemcitabine]
increase in tumor AUC by DEX pretreatment ([1]; H1299 nude mice): 60% | AUC ([1]; bone marrow, DEX (+)): 16.41 µg·h/mL | CL ([1]; bone marrow, DEX (+)): 9.75 mL/g/h | Cmax ([1]; bone marrow, DEX (+)): 14.36 µg/mL | Vss ([1]; bone marrow, DEX (+)): 11.14 mL/g | AUC ([1]; bone marrow, DEX (−)): 21.10 µg·h/mL | CL ([1]; bone marrow, DEX (−)): 7.58 mL/g/h | Cmax ([1]; bone marrow, DEX (−)): 18.53 µg/mL | Vss ([1]; bone marrow, DEX (−)): 8.64 mL/g | AUC ([1]; liver, DEX (+)): 107.85 µg·h/mL | CL ([1]; liver, DEX (+)): 1.48 mL/g/h | Cmax ([1]; liver, DEX (+)): 157.46 µg/mL | Vss ([1]; liver, DEX (+)): 1.02 mL/g | AUC ([1]; liver, DEX (−)): 123.27 µg·h/mL | CL ([1]; liver, DEX (−)): 1.30 mL/g/h | Cmax ([1]; liver, DEX (−)): 171.80 µg/mL | Vss ([1]; liver, DEX (−)): 0.93 mL/g | AUC ([1]; plasma, DEX (+)): 322.43 µg·h/mL | CL ([1]; plasma, DEX (+)): 0.50 mL/g/h | Cmax ([1]; plasma, DEX (+)): 237.16 µg/mL | Vss ([1]; plasma, DEX (+)): 9.90 mL/g | AUC ([1]; plasma, DEX (−)): 277.38 µg·h/mL | CL ([1]; plasma, DEX (−)): 0.58 mL/g/h | Cmax ([1]; plasma, DEX (−)): 286.72 µg/mL | Vss ([1]; plasma, DEX (−)): 5.96 mL/g | AUC ([1]; spleen, DEX (+)): 505.40 µg·h/mL | CL ([1]; spleen, DEX (+)): 0.32 mL/g/h | Cmax ([1]; spleen, DEX (+)): 179.42 µg/mL | Vss ([1]; spleen, DEX (+)): 0.89 mL/g | AUC ([1]; spleen, DEX (−)): 909.92 µg·h/mL | CL ([1]; spleen, DEX (−)): 0.18 mL/g/h | Cmax ([1]; spleen, DEX (−)): 221.99 µg/mL | Vss ([1]; spleen, DEX (−)): 0.72 mL/g | AUC ([1]; tumor, DEX (+)): 674.44 µg·h/mL | CL ([1]; tumor, DEX (+)): 0.23 mL/g/h | Cmax ([1]; tumor, DEX (+)): 46.66 µg/mL | Vss ([1]; tumor, DEX (+)): 12.72 mL/g | AUC ([1]; tumor, DEX (−)): 434.55 µg·h/mL | CL ([1]; tumor, DEX (−)): 0.37 mL/g/h | Cmax ([1]; tumor, DEX (−)): 49.15 µg/mL | Vss ([1]; tumor, DEX (−)): 9.01 mL/g | death ([2]; nude mice, carboplatin 120 mg/kg, gemcitabine 160 mg/kg i.p.): no death occurred | AUC ([3]; bone marrow, DEX (+)): 7.03 µg·h/mL | CL ([3]; bone marrow, DEX (+)): 22.76 mL/g/h | Cmax ([3]; bone marrow, DEX (+)): 15.82 µg/mL | Vss ([3]; bone marrow, DEX (+)): 10.12 mL/g | AUC ([3]; bone marrow, DEX (−)): 18.35 µg·h/mL | CL ([3]; bone marrow, DEX (−)): 8.72 mL/g/h | Cmax ([3]; bone marrow, DEX (−)): 16.12 µg/mL | Vss ([3]; bone marrow, DEX (−)): 9.93 mL/g | AUC ([3]; liver, DEX (+)): 124.80 µg·h/mL | CL ([3]; liver, DEX (+)): 1.28 mL/g/h | Cmax ([3]; liver, DEX (+)): 166.94 µg/mL | Vss ([3]; liver, DEX (+)): 0.96 mL/g | AUC ([3]; liver, DEX (−)): 123.68 µg·h/mL | CL ([3]; liver, DEX (−)): 1.29 mL/g/h | Cmax ([3]; liver, DEX (−)): 158.43 µg/mL | Vss ([3]; liver, DEX (−)): 1.01 mL/g | AUC ([3]; plasma, DEX (+)): 319.96 µg·h/mL | CL ([3]; plasma, DEX (+)): 0.50 mL/g/h | Cmax ([3]; plasma, DEX (+)): 253.68 µg/mL | Vss ([3]; plasma, DEX (+)): 10.81 mL/g | AUC ([3]; plasma, DEX (−)): 552.32 µg·h/mL | CL ([3]; plasma, DEX (−)): 0.29 mL/g/h | Cmax ([3]; plasma, DEX (−)): 264.13 µg/mL | Vss ([3]; plasma, DEX (−)): 16.64 mL/g | AUC ([3]; spleen, DEX (+)): 135.50 µg·h/mL | CL ([3]; spleen, DEX (+)): 1.18 mL/g/h | Cmax ([3]; spleen, DEX (+)): 193.29 µg/mL | Vss ([3]; spleen, DEX (+)): 0.83 mL/g | AUC ([3]; spleen, DEX (−)): 375.21 µg·h/mL | CL ([3]; spleen, DEX (−)): 0.43 mL/g/h | Cmax ([3]; spleen, DEX (−)): 196.84 µg/mL | Vss ([3]; spleen, DEX (−)): 0.81 mL/g

C[C@@H]1C[C@H]2[C@@H]3CCC4=CC(=O)C=C[C@]4(C)[C@@]3(F)[C@@H](O)C[C@]2(C)[C@@]1(O)C(=O)CO [DEX, dexamethasone]
Responses: number of PD ([4]; Cohort 2 (n=8), Dex 8 mg bid): 1 | Responses: number of PR ([4]; Cohort 2 (n=8), Dex 8 mg bid): 7 | platelet nadir ratio (course 2 ÷ course 1), M±SE ([4]; Cohort 2: Dex 8 mg bid): 2.68±0.6 | AGC nadir ratio (course 2 ÷ course 1), M±SE ([4]; Cohort 2: Dex 8 mg bid): 2.68±0.8 | Responses: number of PD ([4]; Cohort 3 (n=10), Dex 16 mg bid): 1 | Responses: number of PR ([4]; Cohort 3 (n=10), Dex 16 mg bid): 8 | Responses: number of SD ([4]; Cohort 3 (n=10), Dex 16 mg bid): 1 | platelet nadir ratio (course 2 ÷ course 1), M±SE ([4]; Cohort 3: Dex 16 mg bid): 2.72±0.6 | AGC nadir ratio (course 2 ÷ course 1), M±SE ([4]; Cohort 3: Dex 16 mg bid): 2.94±0.7 | reduction of toxicity, data trends ([4]; Dex 16 mg): effective in reducing toxicity | Dex DLTs ([4]; NSCLC patients, Dex 8 or 16 mg bid): No Dex DLTs were observed | increase of efficacy of carboplatin by DEX pretreatment [5]: 66% | increase of efficacy of gemcitabine by DEX pretreatment [5]: 60% | increase of efficacy of carboplatin, gemcitabine or combination by DEX pretreatment ([2]; all xenograft models tested): 2-4 fold | increase of therapeutic effectiveness of combination therapy of carboplatin and gemcitabine by DEX pretreatment [6]: 130% | effect of DEX pretreatment on toxicity profiles of the two chemotherapeutic agents [7]: no effect on toxicity profiles | increase of therapeutic effectiveness of carboplatin by DEX pretreatment [8]: 50% | increase of therapeutic effectiveness of gemcitabine by DEX pretreatment [8]: 60% | increase of anticancer effects of carboplatin by DEX pretreatment [9]: 70% | death ([10]; CD-1 mice, DEX alone s.c. 0.01-0.3 mg/mouse/day for 5 days): No death occurred | survival rate ([10]; CD-1 mice, DEX pretreatment 0.01 mg/mouse/day for 5 days): 40% | survival rate ([10]; CD-1 mice, DEX pretreatment s.c. 0.1 mg/mouse/day for 5 days): 80% | mortality of treated animals ([10]; combination treatment with carboplatin and gemcitabine, DEX pretreatment): reduced the mortality of treated animals | increase of therapeutic effect of carboplatin by DEX pretreatment [11]: approximately 80% | optimal dose for prevention of neutropenia ([12]; CD-1 mice, DEX before carboplatin 360 mg/m^2): 0.1 mg/kg | peripheral blood counts, effect of dexamethasone ([12]; mouse, in vivo): induction of transient granulocytosis and lymphopenia

Source: patent US20050244335A1, “Methods and compositions related to increasing antitumor activity of chemotherapeutic agents” (priority 2004, published 2005)
